Measurements: publication PMC10167348, “Structural mechanisms of TRPM7 activation and inhibition” (Nature Communications, 2023)
Several values for one entry are separate records, joined by “and”; a condition that tells them apart may be missing. Equal values may be shown once.

Key:
Assay type in all cases: cell-based
wild-type TRPM7 = target: T1, wild-type TRPM7 (Mus musculus, UniProt Q923J1); test: Whole-cell patch-clamp recordings in HEK 293T cells; conditions: amplitude at +80 mV
T1 construct: expressed in transfected cells; host or cells: HEK 293T
Method: Patch-clamp experiments were performed as reported previously, with a few modifications[69],[70]. HEK 293T cells grown in 35-mm dishes to ~60% confluence were transiently transfected with Trpm7 cDNAs in the pIRES2-EGFP vector (2 µg/dish). Patch-clamp experiments were conducted 18–22 h after transfection with cells displaying EGFP fluorescence. Whole-cell currents were recorded using an EPC10 patch-clamp amplifier and PatchMaster software (Version V2x69, Harvard Bioscience). Voltages were corrected for a liquid junction potential of 10 mV. Currents were elicited by voltage ramps from –100 mV to +100 mV over 50 ms acquired at 0.5 Hz. The inward and outward current amplitudes were measured at –80 mV and +80 mV and were normalized to the cell size as pA/pF. The capacitance was measured using the automated capacitance cancellation function of EPC10. The standard extracellular solution contained 140 mM NaCl, 2.8 mM KCl, 1 mM CaCl2, 2 mM MgCl2, 10 mM HEPES-NaOH, and 11 mM glucose (all from Sigma-Aldrich). Solutions were adjusted to pH 7.2 using an FE20 pH meter (Mettler Toledo) and to 290 mOsm using a Vapro 5520 osmometer (Wescor Inc). […] For the experiment with naltriben, the intracellular solution contained 120 mM Cs-glutamate, 8 mM NaCl, 10 mM Cs-EGTA, 1.5 mM MgCl2, and 10 mM HEPES-CsOH. The intracellular solution was also adjusted to pH 7.2 and 290 mOsm. Data are presented as the mean ± SEM Unless indicated otherwise, data were compared by unpaired t-test (GraphPad Prism 8.4.0). For multiple comparisons, ordinary one-way ANOVA (GraphPad Prism 8.4.0) was used. Significance was accepted at P ≤ 0.05.

TRPM7-N752K = target: T2, TRPM7-N752K (Mus musculus, UniProt Q923J1, N752K); test: Aequorin-based Ca2+ influx assay, activation by naltriben
T2 construct: expressed in transfected cells; host or cells: HEK 293T
Method: (§1) Measurements of [Ca^2+]i were performed as reported previously with several modifications[2],[52],[54]. HEK 293T cells (mycoplasma test negative, ATCC #CRL3216) were maintained at 37 °C and 5% CO2 in DMEM supplemented with 10% fetal calf serum, 100 µg/ml streptomycin and 100 U/ml penicillin (all from Thermo Fisher Scientific). Cells cultured in six-well plates (~60% confluence) were transfected with 2 µg/dish Trpm7 plasmid DNA and 0.1 µg/dish pG5A plasmid DNA encoding eGFP fused to Aequorea victoria aequorin, using Lipofectamine 2000 (Thermo Fisher Scientific). Twenty-four hours after transfection, the cells were washed with Mg^2+-free HEPES-buffered saline (Mg^2+-free HBS) containing 140 mM NaCl, 6 mM KCl, 0.5 mM CaCl2, 10 mM HEPES (pH 7.4) and 5 mM glucose, and mechanically resuspended in the Mg^2+-free HBS. For reconstitution of aequorin, cell suspensions were incubated with 5 µM coelenterazine (Biaffin GmbH) in the Mg^2+-free HBS for 30 min at room temperature. Cells were washed twice by centrifugation at 600 rpm for 5 min (Heraeus Pico 17 microcentrifuge, Thermo Fisher Scientific), resuspended in the Mg^2+-free HBS and aliquoted into 96-well plates (1 × 10^5 cells per well). Luminescence was detected at room temperature using a FLUOstar OPTIMA microplate reader (BMG LABTECH GmbH). To monitor the NS8593- and VER155008-induced inhibition of TRPM7-mediated Ca^2+ influx, the extracellular concentration of Ca^2+ was increased to 5 mM by injecting the CaCl2-containing Mg^2+-free HBS in the absence or presence of the inhibitors. […] To study activation by naltriben, TRPM7-transfected cells were exposed to Mg^2+-free HBS containing different concentrations of the agonist. The experiments were terminated by lysing cells with 0.1% (v/v) Triton X-100 in the Mg^2+-free HBS to record the total bioluminescence. The bioluminescence rates (counts/s) were analyzed at 1-s intervals and calibrated as [Ca^2+]i values using the following equation:1 p[Ca^2+]i=0.332588(−log(k))+5.5593 where k represents the rate of aequorin consumption, i.e., counts/s divided by the total number of counts.
(§2) To determine the IC50 values for NS8593 and VER155008 (EC50 for naltriben), the data were fitted with the following logistic equation:2 Ec=Emin+Emax+Emin/1+c^h/IC50^h where E(c) is the functional effect at the concentration c of the compound, Emin is the minimal effect, Emax is the maximal effect, IC50 (EC50) is the concentration of the compound that produces the half-maximal effect, and h is the Hill coefficient. Fitting of dose-response curves was performed using GraphPad Prism 8.4.0. Data are presented as the mean ± SEM.

TRPM7 WT = target: T3, TRPM7 WT (Mus musculus, UniProt Q923J1); test: as above; conditions: for TRPM7 activation, fold: replicate values
T3 construct: expressed in transfected cells; host or cells: HEK 293T
Method: as §1, §2

TRPM7-L671A = target: T4, TRPM7-L671A (Mus musculus, UniProt Q923J1, L671A); test: as above
T4 construct: expressed in transfected cells; host or cells: HEK 293T
Method: as §1, §2

TRPM7-D670A = target: T5, TRPM7-D670A (Mus musculus, UniProt Q923J1, D670A); test: as above; conditions: for TRPM7 activation, fold: replicate values
T5 construct: expressed in transfected cells; host or cells: HEK 293T
Method: as §1, §2

TRPM7-M741A = target: T6, TRPM7-M741A (Mus musculus, UniProt Q923J1, M741A); test: as above; conditions: for TRPM7 activation, fold: replicate values
T6 construct: expressed in transfected cells; host or cells: HEK 293T
Method: as §1, §2

TRPM7-S744A = target: T7, TRPM7-S744A (Mus musculus, UniProt Q923J1, S744A); test: as above
T7 construct: expressed in transfected cells; host or cells: HEK 293T
Method: as §1, §2

T3 sequence (Q923J1 whole entry): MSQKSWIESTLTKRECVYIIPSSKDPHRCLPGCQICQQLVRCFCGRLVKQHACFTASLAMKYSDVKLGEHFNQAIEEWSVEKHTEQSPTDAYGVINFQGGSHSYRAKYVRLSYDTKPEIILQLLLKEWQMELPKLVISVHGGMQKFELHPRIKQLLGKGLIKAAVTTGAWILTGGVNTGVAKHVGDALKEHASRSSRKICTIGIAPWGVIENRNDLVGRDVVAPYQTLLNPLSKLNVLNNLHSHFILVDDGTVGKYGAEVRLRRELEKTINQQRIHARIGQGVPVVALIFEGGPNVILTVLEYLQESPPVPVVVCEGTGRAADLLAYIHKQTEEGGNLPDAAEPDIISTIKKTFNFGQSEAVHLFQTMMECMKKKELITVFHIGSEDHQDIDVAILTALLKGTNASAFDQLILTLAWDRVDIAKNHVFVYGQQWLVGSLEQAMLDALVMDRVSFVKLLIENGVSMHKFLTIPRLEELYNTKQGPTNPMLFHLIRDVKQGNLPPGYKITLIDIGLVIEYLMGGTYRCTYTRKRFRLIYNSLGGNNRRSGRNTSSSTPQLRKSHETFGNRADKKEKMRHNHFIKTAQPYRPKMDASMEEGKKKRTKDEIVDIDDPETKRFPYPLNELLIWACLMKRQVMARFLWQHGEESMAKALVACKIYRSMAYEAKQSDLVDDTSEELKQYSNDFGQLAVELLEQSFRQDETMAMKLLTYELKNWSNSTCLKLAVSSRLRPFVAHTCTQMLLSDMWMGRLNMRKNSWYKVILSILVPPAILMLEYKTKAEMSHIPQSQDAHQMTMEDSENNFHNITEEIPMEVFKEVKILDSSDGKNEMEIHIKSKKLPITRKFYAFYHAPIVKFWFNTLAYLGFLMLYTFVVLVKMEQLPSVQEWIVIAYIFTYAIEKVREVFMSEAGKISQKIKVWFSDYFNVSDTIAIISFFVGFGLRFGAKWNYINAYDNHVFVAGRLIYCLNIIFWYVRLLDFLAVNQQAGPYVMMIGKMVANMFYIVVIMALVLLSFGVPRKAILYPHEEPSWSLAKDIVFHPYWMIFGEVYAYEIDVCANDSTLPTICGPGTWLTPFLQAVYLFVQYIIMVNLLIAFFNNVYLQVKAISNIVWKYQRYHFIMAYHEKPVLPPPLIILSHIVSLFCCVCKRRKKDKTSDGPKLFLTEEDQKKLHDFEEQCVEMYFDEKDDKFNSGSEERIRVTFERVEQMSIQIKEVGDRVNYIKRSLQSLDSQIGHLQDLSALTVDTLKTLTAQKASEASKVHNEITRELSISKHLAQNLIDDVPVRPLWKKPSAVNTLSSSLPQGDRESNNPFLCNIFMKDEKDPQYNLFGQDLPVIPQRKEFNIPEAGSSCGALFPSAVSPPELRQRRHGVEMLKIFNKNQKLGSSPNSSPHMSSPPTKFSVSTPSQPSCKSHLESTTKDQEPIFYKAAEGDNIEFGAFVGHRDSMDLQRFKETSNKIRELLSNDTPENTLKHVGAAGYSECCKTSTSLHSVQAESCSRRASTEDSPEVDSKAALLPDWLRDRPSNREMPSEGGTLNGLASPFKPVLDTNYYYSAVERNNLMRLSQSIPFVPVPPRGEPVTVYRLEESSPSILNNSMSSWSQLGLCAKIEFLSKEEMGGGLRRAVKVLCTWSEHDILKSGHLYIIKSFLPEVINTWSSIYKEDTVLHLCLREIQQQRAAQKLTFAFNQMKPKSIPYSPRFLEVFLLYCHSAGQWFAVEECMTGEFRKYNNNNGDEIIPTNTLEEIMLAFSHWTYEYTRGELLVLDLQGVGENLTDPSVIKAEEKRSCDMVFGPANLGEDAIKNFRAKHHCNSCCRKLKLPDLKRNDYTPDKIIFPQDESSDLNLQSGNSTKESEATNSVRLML
T5 sequence (Q923J1 whole entry D670A): as the sequence (Q923J1 whole entry) above, with D670A counted along it
T6 sequence (Q923J1 whole entry M741A): as the sequence (Q923J1 whole entry) above, with M741A counted along it
T1 sequence (Q923J1 whole entry): as the sequence (Q923J1 whole entry) above
T4 sequence (Q923J1 whole entry L671A): as the sequence (Q923J1 whole entry) above, with L671A counted along it
T7 sequence (Q923J1 whole entry S744A): as the sequence (Q923J1 whole entry) above, with S744A counted along it
T2 sequence (Q923J1 whole entry N752K): as the sequence (Q923J1 whole entry) above, with N752K counted along it

c1ccc2c(c1)CCC[C@H]2Nc1nc2ccccc2[nH]1 [NS8593]
amplitude of TRPM7-mediated currents in the presence of inhibitor (wild-type TRPM7; 10 µM inhibitor, 450-s exposure): greatly reduced

Oc1ccc2c3c1O[C@H]1c4oc5ccccc5c4C[C@@]4(O)[C@@H](C2)N(CC2CC2)CC[C@]314 [Naltriben, naltriben]
EC50 (TRPM7-N752K): 191 ± 18 µM
Hill coefficient (TRPM7-N752K; N752K, agonist, mean ± SEM): 1.91 ± 0.24
EC50 (TRPM7 WT): 65.8 ± 12.4 µM
TRPM7 activation, fold (TRPM7 WT; WT, [Naltriben] 100 µM): 3.40 fold and 2.89 fold and 2.30 fold and 2.40 fold and 3.03 fold and 3.14 fold
TRPM7 activation, fold (TRPM7 WT; WT, [Naltriben] 200 µM): 4.23 fold and 3.70 fold and 3.66 fold and 2.99 fold and 3.63 fold and 3.89 fold
TRPM7 activation, fold (TRPM7 WT; WT, [Naltriben] 300 µM): 4.35 fold and 3.85 fold and 3.80 fold and 3.47 fold and 3.56 fold and 4.23 fold
TRPM7 activation, fold (TRPM7 WT; WT, [Naltriben] 400 µM): 4.51 fold and 3.90 fold and 3.86 fold and 3.52 fold and 3.70 fold and 4.17 fold
TRPM7 activation, fold (TRPM7 WT; WT, [Naltriben] 500 µM): 4.41 fold and 4.17 fold and 4.05 fold and 3.42 fold and 4.20 fold and 4.10 fold
Hill coefficient (TRPM7 WT; WT, agonist, mean ± SEM): 1.23 ± 0.25
EC50 (TRPM7-L671A): 145 ± 22.9 µM
Hill coefficient (TRPM7-L671A; L671A, agonist, mean ± SEM): 1.68 ± 0.32
EC50 (TRPM7-D670A): 117 ± 32.4 µM
TRPM7 activation, fold (TRPM7-D670A; D670A, [Naltriben] 10 µM): 1.01 fold and 1.02 fold and 1.12 fold
TRPM7 activation, fold (TRPM7-D670A; D670A, [Naltriben] 20 µM): 1.24 fold and 1.22 fold and 1.21 fold
TRPM7 activation, fold (TRPM7-D670A; D670A, [Naltriben] 30 µM): 1.55 fold and 1.37 fold (2×)
TRPM7 activation, fold (TRPM7-D670A; D670A, [Naltriben] 40 µM): 1.67 fold and 1.48 fold and 1.56 fold
TRPM7 activation, fold (TRPM7-D670A; D670A, [Naltriben] 50 µM): 2.45 fold and 1.56 fold and 1.72 fold
TRPM7 activation, fold (TRPM7-D670A; D670A, [Naltriben] 100 µM): 2.45 fold and 2.03 fold and 2.05 fold
TRPM7 activation, fold (TRPM7-D670A; D670A, [Naltriben] 200 µM): 3.19 fold and 2.69 fold and 2.68 fold
TRPM7 activation, fold (TRPM7-D670A; D670A, [Naltriben] 300 µM): 3.34 fold and 3.00 fold and 2.98 fold
TRPM7 activation, fold (TRPM7-D670A; D670A, [Naltriben] 400 µM): 3.55 fold and 3.27 fold and 3.16 fold
TRPM7 activation, fold (TRPM7-D670A; D670A, [Naltriben] 500 µM): 3.71 fold and 3.18 fold and 3.31 fold
Hill coefficient (TRPM7-D670A; D670A, agonist, mean ± SEM): 1.17 ± 0.24
EC50 (TRPM7-M741A): 85 ± 6.51 µM
TRPM7 activation, fold (TRPM7-M741A; M741A, [Naltriben] 10 µM): 0.99 fold and 1.09 fold and 1.07 fold (2×)
TRPM7 activation, fold (TRPM7-M741A; M741A, [Naltriben] 20 µM): 1.10 fold and 1.30 fold and 1.28 fold and 1.20 fold
TRPM7 activation, fold (TRPM7-M741A; M741A, [Naltriben] 30 µM): 1.39 fold and 1.61 fold and 1.52 fold and 1.40 fold
TRPM7 activation, fold (TRPM7-M741A; M741A, [Naltriben] 40 µM): 1.53 fold and 1.69 fold and 1.74 fold and 1.64 fold
TRPM7 activation, fold (TRPM7-M741A; M741A, [Naltriben] 50 µM): 1.77 fold and 2.03 fold and 1.91 fold and 1.96 fold
TRPM7 activation, fold (TRPM7-M741A; M741A, [Naltriben] 100 µM): 2.28 fold and 2.65 fold and 2.56 fold and 2.47 fold
TRPM7 activation, fold (TRPM7-M741A; M741A, [Naltriben] 200 µM): 2.83 fold and 3.14 fold and 3.02 fold and 2.90 fold
TRPM7 activation, fold (TRPM7-M741A; M741A, [Naltriben] 300 µM): 3.11 fold and 3.30 fold and 3.34 fold and 3.20 fold
TRPM7 activation, fold (TRPM7-M741A; M741A, [Naltriben] 400 µM): 3.18 fold and 3.51 fold and 3.48 fold and 3.46 fold
TRPM7 activation, fold (TRPM7-M741A; M741A, [Naltriben] 500 µM): 3.39 fold and 3.58 fold (2×) and 3.45 fold
Hill coefficient (TRPM7-M741A; M741A, agonist, mean ± SEM): 1.37 ± 0.11
EC50 (TRPM7-S744A): 71.8 ± 9.7 µM
Hill coefficient (TRPM7-S744A; S744A, agonist, mean ± SEM): 1.48 ± 0.25
whole-cell currents in the presence of agonist (wild-type TRPM7; 500 μM NTB, 170-s application): dramatically increased
